The target in this experiment is factor B (Homo sapiens, UniProt P00751). In words: factor B inhibition assay of Biological Example 1. The class given is biochemical. Set-up: CVF-Bb complex prepared from purified cobra venom factor (1 μM), recombinant human complement factor B; made in house; host or cells: drosophila cells (factor B); E. coli (factor D used to form the complex). The following applies: IC50 (nM), assay of Biological Example 1 (Table 1).

As usually defined, the IC50 is the midpoint of a concentration-inhibition curve.

Molecules are shown by their SMILES.

factor B, sequence (P00751 260-764 limits assumed): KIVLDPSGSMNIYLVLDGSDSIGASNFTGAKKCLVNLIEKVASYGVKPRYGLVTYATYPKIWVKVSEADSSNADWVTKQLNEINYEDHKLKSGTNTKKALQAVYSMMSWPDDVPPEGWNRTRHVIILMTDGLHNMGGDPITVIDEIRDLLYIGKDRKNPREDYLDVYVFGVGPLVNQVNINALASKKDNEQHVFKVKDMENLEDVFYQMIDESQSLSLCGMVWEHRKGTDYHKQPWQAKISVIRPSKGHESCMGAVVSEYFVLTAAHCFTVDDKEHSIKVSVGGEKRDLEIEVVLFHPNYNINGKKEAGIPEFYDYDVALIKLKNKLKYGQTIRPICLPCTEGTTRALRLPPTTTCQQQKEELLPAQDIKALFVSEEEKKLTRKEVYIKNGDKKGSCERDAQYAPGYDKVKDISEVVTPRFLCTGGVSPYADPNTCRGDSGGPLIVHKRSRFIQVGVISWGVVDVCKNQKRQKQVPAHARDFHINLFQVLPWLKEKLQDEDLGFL
factor B, sequence (Q91132 23-649 partner limits assumed): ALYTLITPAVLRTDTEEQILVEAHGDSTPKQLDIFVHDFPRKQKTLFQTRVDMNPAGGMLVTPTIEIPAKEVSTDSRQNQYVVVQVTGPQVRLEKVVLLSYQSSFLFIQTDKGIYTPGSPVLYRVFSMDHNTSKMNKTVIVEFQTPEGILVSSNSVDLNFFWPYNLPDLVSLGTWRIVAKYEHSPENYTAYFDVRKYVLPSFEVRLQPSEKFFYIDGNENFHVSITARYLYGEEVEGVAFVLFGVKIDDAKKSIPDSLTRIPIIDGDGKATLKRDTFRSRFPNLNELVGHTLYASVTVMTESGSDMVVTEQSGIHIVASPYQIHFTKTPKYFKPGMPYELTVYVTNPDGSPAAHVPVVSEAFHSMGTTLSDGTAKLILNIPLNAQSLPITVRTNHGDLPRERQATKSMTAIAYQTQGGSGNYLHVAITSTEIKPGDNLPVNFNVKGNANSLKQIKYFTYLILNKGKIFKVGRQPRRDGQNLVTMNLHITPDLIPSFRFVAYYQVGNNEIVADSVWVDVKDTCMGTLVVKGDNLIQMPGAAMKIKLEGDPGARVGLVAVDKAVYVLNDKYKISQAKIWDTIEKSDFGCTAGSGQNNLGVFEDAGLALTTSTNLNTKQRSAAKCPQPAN
factor B, sequence (Q91132 733-984 partner limits assumed): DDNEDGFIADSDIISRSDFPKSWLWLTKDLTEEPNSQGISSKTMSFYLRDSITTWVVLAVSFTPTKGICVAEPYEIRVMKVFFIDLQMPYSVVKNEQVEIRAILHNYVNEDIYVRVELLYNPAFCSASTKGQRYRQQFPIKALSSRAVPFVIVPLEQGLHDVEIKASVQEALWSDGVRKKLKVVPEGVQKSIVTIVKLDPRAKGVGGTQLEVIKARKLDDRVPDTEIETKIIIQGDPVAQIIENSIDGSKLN
factor B, sequence (Q91132 1264-1642 partner limits assumed): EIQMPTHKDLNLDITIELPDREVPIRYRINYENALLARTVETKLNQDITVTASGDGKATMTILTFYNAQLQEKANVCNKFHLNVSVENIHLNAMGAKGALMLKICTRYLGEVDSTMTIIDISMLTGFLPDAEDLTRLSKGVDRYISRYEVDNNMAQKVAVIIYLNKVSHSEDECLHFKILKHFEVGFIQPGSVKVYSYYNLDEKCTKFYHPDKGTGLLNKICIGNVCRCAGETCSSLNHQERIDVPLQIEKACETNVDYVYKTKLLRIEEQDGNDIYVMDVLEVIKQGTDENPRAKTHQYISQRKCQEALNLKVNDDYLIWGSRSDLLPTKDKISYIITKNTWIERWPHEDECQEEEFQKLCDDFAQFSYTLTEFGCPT

As to `Cc1cc(C)c2[nH]cc3c2c1C(O)(c1nc2cc(C#N)ccc2[nH]1)CC3` (single isomer, unassigned) [93-F b) (tr = 7.2 min), (+) or (−)-2-(5-hydroxy-6,8-dimethyl-1,3,4,5-tetrahydrobenzo[cd]indol-5-yl)-1H-benzo[d]imidazole-5-carbonitrile], the IC50 came to 33800 nM.
With `Cc1cc(C)c2[nH]cc3c2c1C(O)(c1nc2cc(C#N)ccc2[nH]1)CC3` (single isomer, unassigned) [93-F b) (tr = 10.2 min), (−) or (+)-2-(5-hydroxy-6,8-dimethyl-1,3,4,5-tetrahydrobenzo[cd]indol-5-yl)-1H-benzo[d]imidazole-5-carbonitrile], the half-inhibitory concentration (IC50) was 950 nM.
On to `CCc1cc(C)c2[nH]cc3c2c1C(O)(c1nc2cc(C#N)ccc2[nH]1)CC3` (single isomer, unassigned) [94 b) (tr = 4.5 min), (+) or (−)-2-(6-ethyl-5-hydroxy-8-methyl-1,3,4,5-tetrahydrobenzo[cd]indol-5-yl)-1H-benzo[d]imidazole-5-carbonitrile], for which the IC50 turned out to be 400 nM.
The result for `CCc1cc(C)c2[nH]cc3c2c1C(O)(c1nc2cc(C#N)ccc2[nH]1)CC3` (single isomer, unassigned) [94 b) (tr = 6.3 min), (−) or (+)-2-(6-ethyl-5-hydroxy-8-methyl-1,3,4,5-tetrahydrobenzo[cd]indol-5-yl)-1H-benzo[d]imidazole-5-carbonitrile] reads 1590 nM.
For `Cc1cc(C(C)C)c(C(N)c2nc3cc(C#N)ccc3[nH]2)c2cc[nH]c12` (single isomer, unassigned) [97 b) (tr = 10.5 min), (+) or (−)-2-(amino(5-isopropyl-7-methyl-1H-indol-4-yl)methyl)-1H-benzo[d]imidazole-5-carbonitrile], the half-inhibitory concentration (IC50) is 3810 nM.
The result for `Cc1cc(C(C)C)c(C(N)c2nc3cc(C#N)ccc3[nH]2)c2cc[nH]c12` (single isomer, unassigned) [97 b) (tr = 19.4 min), (−) or (+)-2-(amino(5-isopropyl-7-methyl-1H-indol-4-yl)methyl)-1H-benzo[d]imidazole-5-carbonitrile] reads 70 nM; that for `Cc1cc(C)c2[nH]cc(-c3ccccc3)c2c1C(O)c1nc2cc(C#N)ccc2[nH]1` (single isomer, unassigned) [118-C b) (tr = 4.6 min), (+)- or (−)-2-((5,7-dimethyl-3-phenyl-1H-indol-4-yl)(hydroxy)methyl)-1H-benzo[d]imidazole-5-carbonitrile], 30 nM; that for `Cc1cc(C)c2[nH]cc(-c3ccccc3)c2c1C(O)c1nc2cc(C#N)ccc2[nH]1` (single isomer, unassigned) [118-C b) (tr = 7.9 min), (−) or (+)-2-((5,7-dimethyl-3-phenyl-1H-indol-4-yl)(hydroxy)methyl)-1H-benzo[d]imidazole-5-carbonitrile], 1750 nM.
The figure for `Cc1cc(C)c2[nH]cc(-c3cnn(C)c3)c2c1C(O)c1nc2cc(C#N)ccc2[nH]1` (single isomer, unassigned) [119 b) (tr = 1.54 min), (+)- or (−)-2-((5,7-dimethyl-3-(1-methyl-1H-pyrazol-4-yl)-1H-indol-4-yl)(hydroxy)methyl)-1H-benzo[d]imidazole-5-carbonitrile] is 130 nM; for `Cc1cc(C)c2[nH]cc(-c3cnn(C)c3)c2c1C(O)c1nc2cc(C#N)ccc2[nH]1` (single isomer, unassigned) [119 b) (tr = 2.35 min), (−) or (+)-2-((5,7-dimethyl-3-(1-methyl-1H-pyrazol-4-yl)-1H-indol-4-yl)(hydroxy)methyl)-1H-benzo[d]imidazole-5-carbonitrile] it is 12600 nM; for `Cc1cc(C)c2[nH]cc(-c3cccnc3)c2c1C(O)c1nc2cc(C#N)ccc2[nH]1` (single isomer, unassigned) [120 b) (tr = 2.25 min), (+)- or (−)-2-((5,7-dimethyl-3-(pyridin-3-yl)-1H-indol-4-yl)(hydroxy)methyl)-1H-benzo[d]imidazole-5-carbonitrile] it is 120 nM.
The figure for `Cc1cc(C)c2[nH]cc(-c3cccnc3)c2c1C(O)c1nc2cc(C#N)ccc2[nH]1` (single isomer, unassigned) [120 b) (tr = 3.20 min), (−) or (+)-2-((5,7-dimethyl-3-(pyridin-3-yl)-1H-indol-4-yl)(hydroxy)methyl)-1H-benzo[d]imidazole-5-carbonitrile] is 29000 nM.
`Cc1cc(OC(F)F)c(C(C)(O)c2nc3cc(C#N)ccc3[nH]2)c2c(Cl)c[nH]c12` (single isomer, unassigned) [Example 7, (+) or (−)-2-(1-(3-chloro-5-(difluoromethoxy)-7-methyl-1H-indol-4-yl)-1-hydroxyethyl)-1H-benzo[d]imidazole-5-carbonitrile]: the IC50 worked out at 4240 nM.
Turning to `COc1cc(C)c2[nH]cc(Cl)c2c1C(C)(O)c1nc2cc(C#N)ccc2[nH]1` (single isomer, unassigned) [Example 29-A, (−) or (+)-2-(1-(3-Chloro-5-methoxy-7-methyl-1H-indol-4-yl)-1-hydroxyethyl)-1H-benzo[d]imidazole-5-carbonitrile], the IC50 was 2030 nM.
The figure for `COc1cc(C)c2[nH]cc(Cl)c2c1C(C)(O)c1nc2cc(C#N)ccc2[nH]1` (single isomer, unassigned) [Example 29-B, (+) or (−)-2-(1-(3-chloro-5-methoxy-7-methyl-1H-indol-4-yl)-1-hydroxyethyl)-1H-benzo[d]imidazole-5-carbonitrile] is 2570 nM.
The result for `Cc1cc(OC(F)F)c(C(O)c2nc3cc(C#N)ccc3[nH]2)c2cc[nH]c12` (single isomer, unassigned; (+)) [3-B b) (+), (+)-2-((5-(difluoromethoxy)-7-methyl-1H-indol-4-yl)(hydroxy)methyl)-1H-benzo[d]imidazole-5-carbonitrile] reads 820 nM; that for `Cc1cc(OC(F)F)c(C(C)(N)c2nc3cc(C#N)ccc3[nH]2)c2cc[nH]c12` (single isomer, unassigned; (+)) [5-E b) (+), (+)-2-(1-amino-1-(5-(difluoromethoxy)-7-methyl-1H-indol-4-yl)ethyl)-1H-benzo[d]imidazole-5-carbonitrile], 420 nM; that for `COC(C)(c1nc2cc(C#N)ccc2[nH]1)c1c(OC(F)F)cc(C)c2[nH]ccc12` (single isomer, unassigned; (+)) [8-B b) (+), (+)-2-(1-(5-(difluoromethoxy)-7-methyl-1H-indol-4-yl)-1-methoxyethyl)-1H-benzo[d]imidazole-5-carbonitrile], 10 nM.
The result for `Cc1cc(S(C)(=O)=O)c(C(C)(N)c2nc3cc(C#N)ccc3[nH]2)c2cc[nH]c12` (single isomer, unassigned; (+)) [13-E b) (+), (+)-2-(1-Amino-1-(7-methyl-5-(methylsulfonyl)-1H-indol-4-yl)ethyl)-1H-benzo[d]imidazole-5-carbonitrile] reads 250 nM.
Regarding `Cc1cc(S(C)(=O)=O)c(C(O)(c2nc3cc(C#N)ccc3[nH]2)C(F)(F)F)c2cc[nH]c12` (single isomer, unassigned; (+)) [14-D b) (+), (+)-2-(2,2,2-trifluoro-1-hydroxy-1-(7-methyl-5-(methylsulfonyl)-1H-indol-4-yl)ethyl)-1H-benzo[d]imidazole-5-carbonitrile], the IC50 was found to be 8410 nM.
As for `COC(c1nc2cc(C#N)ccc2[nH]1)(c1c(S(C)(=O)=O)cc(C)c2[nH]ccc12)C(F)(F)F` (single isomer, unassigned; (+)) [15-D b) (+), (+)-2-(2,2,2-trifluoro-1-methoxy-1-(7-methyl-5-(methylsulfonyl)-1H-indol-4-yl)ethyl)-1H-benzo[d]imidazole-5-carbonitrile], the concentration for half-maximal inhibition (IC50) came to 32700 nM.
The figure for `CNC(c1nc2cc(C#N)ccc2[nH]1)(c1c(S(C)(=O)=O)cc(C)c2[nH]ccc12)C(F)(F)F` (single isomer, unassigned; (+)) [16-B b) (+), (+)-2-(2,2,2-trifluoro-1-(7-methyl-5-(methylsulfonyl)-1H-indol-4-yl)-1-(methylamino)ethyl)-1H-benzo[d]imidazole-5-carbonitrile] is 4740 nM.
The figure for `Cc1cc(S(C)(=O)=O)c(C(N)(c2nc3cc(C#N)ccc3[nH]2)C(F)(F)F)c2cc[nH]c12` (single isomer, unassigned; (+)) [17-B b) (+), (+)-2-(1-amino-2,2,2-trifluoro-1-(7-methyl-5-(methylsulfonyl)-1H-indol-4-yl)ethyl)-1H-benzo[d]imidazole-5-carbonitrile] is 6860 nM; for `COc1cc(C)c2[nH]ccc2c1C(O)c1nc2cc(C#N)ccc2[nH]1` (single isomer, unassigned; (+)) [24-B b) (+), (+)-2-(hydroxy(5-methoxy-7-methyl-1H-indol-4-yl)methyl)-1H-benzo[d]imidazole-5-carbonitrile] it is 370 nM.
The result for `CCOc1cc(C)c2[nH]ccc2c1C(O)c1nc2cc(C#N)ccc2[nH]1` (single isomer, unassigned; (+)) [24-C b) (+), (+)-2-((5-ethoxy-7-methyl-1H-indol-4-yl)(hydroxy)methyl)-1H-benzo[d]imidazole-5-carbonitrile] reads 6050 nM; that for `Cc1cc(OC(C)C)c(C(O)c2nc3cc(C#N)ccc3[nH]2)c2cc[nH]c12` (single isomer, unassigned; (+)) [24-D b) (+), (+)-2-(hydroxy(5-isopropoxy-7-methyl-1H-indol-4-yl)methyl)-1H-benzo[d]imidazole-5-carbonitrile], 1980 nM.
Consider `CCOc1cc(C)c2[nH]ccc2c1C(C)(O)c1nc2cc(C#N)ccc2[nH]1` (single isomer, unassigned; (+)) [26-D b) (+), (+)-2-(1-(5-ethoxy-7-methyl-1H-indol-4-yl)-1-hydroxyethyl)-1H-benzo[d]imidazole-5-carbonitrile], for which the IC50 is 360 nM.

(Values after patent US9056874B2, “Complement pathway modulators and uses thereof” (NOVARTIS AG, priority 2012, dated 2015).)
